Results as given in patent US20160355465A1, “NOVEL MODIFIED CURCUMINS AND THEIR USES” (THE RESEARCH FOUNDATION OF STATE UNIVERSITY OF NEW YORK, priority 2011, published 2016).
“Also recorded” adds a separate entry of the source.

How the values were obtained:
MMP-1 = target: T1, MMP-1 (Homo sapiens, UniProt P03956); experiment: fluorimetric assay of MMP activity; format: biochemical; conditions: synthetic fluorescent peptide substrate Mca-Lys-Pro-Leu-Gly-Leu-Dpa-Ala-Arg-NH2
T1 sequence (P03956 100-469): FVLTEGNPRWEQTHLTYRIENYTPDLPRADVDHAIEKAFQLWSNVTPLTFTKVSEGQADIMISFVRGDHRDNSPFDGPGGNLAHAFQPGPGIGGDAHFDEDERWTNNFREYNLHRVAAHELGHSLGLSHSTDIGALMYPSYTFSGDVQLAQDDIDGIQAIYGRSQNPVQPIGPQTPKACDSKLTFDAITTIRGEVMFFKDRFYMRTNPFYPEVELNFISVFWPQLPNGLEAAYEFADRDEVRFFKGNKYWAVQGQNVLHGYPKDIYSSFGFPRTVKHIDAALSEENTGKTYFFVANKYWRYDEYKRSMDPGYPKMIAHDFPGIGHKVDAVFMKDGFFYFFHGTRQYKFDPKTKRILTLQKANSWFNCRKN

MMP-8 = MMP-8 (Homo sapiens, UniProt P22894); experiment: fluorimetric assay of MMP activity; format: biochemical; conditions: synthetic fluorescent peptide substrate Mca-Lys-Pro-Leu-Gly-Leu-Dpa-Ala-Arg-NH2
Chain of MMP-8 (P22894 101-467): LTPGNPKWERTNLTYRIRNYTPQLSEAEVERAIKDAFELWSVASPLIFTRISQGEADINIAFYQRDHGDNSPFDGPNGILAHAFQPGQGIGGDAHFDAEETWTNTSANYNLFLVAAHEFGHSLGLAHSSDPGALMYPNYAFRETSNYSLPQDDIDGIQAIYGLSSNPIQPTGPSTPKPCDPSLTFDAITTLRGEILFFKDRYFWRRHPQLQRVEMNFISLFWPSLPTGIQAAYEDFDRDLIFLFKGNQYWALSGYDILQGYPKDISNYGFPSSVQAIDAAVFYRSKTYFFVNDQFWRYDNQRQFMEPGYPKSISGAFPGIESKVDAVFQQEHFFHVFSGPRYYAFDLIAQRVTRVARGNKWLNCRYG

MMP-2 = target: T2, MMP-2 (Homo sapiens, UniProt P08253); experiment: fluorimetric assay of MMP activity; format: biochemical; conditions: synthetic fluorescent peptide substrate Mca-Lys-Pro-Leu-Gly-Leu-Dpa-Ala-Arg-NH2; read-out: IC50 MMP-2
T2 sequence (P08253 110-660): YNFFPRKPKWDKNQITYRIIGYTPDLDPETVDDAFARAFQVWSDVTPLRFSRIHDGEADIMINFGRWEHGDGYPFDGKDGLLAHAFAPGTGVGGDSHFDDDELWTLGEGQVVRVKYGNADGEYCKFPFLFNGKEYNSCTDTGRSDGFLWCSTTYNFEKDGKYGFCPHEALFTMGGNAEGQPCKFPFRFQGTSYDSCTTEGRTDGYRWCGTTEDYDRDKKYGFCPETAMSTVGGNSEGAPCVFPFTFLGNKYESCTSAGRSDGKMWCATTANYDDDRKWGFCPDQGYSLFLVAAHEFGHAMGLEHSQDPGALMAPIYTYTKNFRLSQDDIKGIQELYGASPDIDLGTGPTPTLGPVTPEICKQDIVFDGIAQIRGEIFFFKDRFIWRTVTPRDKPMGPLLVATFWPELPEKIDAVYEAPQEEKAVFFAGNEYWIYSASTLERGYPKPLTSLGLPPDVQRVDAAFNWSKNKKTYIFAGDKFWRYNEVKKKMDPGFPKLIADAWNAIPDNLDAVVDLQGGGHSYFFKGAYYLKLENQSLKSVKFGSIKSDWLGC

MMP-9 [1] = target: MMP-9 (Homo sapiens, UniProt P14780); experiment: fluorimetric assay of MMP activity; format: biochemical; conditions: synthetic fluorescent peptide substrate Mca-Lys-Pro-Leu-Gly-Leu-Dpa-Ala-Arg-NH2
Chain of MMP-9 (Homo sapiens, UniProt P14780) (P14780 94-707): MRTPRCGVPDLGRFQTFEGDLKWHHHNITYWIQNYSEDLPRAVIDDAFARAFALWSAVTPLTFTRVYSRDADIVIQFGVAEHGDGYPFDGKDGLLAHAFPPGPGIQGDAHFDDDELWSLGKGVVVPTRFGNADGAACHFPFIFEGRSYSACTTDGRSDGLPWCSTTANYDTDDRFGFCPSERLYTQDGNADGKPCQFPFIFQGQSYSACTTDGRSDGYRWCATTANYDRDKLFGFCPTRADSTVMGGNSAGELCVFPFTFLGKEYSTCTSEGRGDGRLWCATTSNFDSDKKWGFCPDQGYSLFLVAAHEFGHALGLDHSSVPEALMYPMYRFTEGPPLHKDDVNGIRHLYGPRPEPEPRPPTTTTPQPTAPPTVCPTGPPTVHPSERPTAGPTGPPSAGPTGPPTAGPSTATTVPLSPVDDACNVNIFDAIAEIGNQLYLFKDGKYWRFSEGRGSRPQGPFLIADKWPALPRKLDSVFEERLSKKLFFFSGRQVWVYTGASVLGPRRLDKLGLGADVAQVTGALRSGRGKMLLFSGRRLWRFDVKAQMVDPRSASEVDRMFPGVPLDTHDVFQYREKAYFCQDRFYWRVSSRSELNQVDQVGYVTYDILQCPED

MMP-14 = MMP-14 (Homo sapiens, UniProt P50281); experiment: fluorimetric assay of MMP activity; format: biochemical; conditions: synthetic fluorescent peptide substrate Mca-Lys-Pro-Leu-Gly-Leu-Dpa-Ala-Arg-NH2
[2] = tested on: MMPs 1, 2, 3, 7, 8, 9, 12, 13 and 14; experiment: activity against a battery of MMPs (summary in words); format: biochemical, human
[3] = toxicity / tolerability in diabetic rats; format: in vivo
Experimental: The following five experimental groups (n=3 rats per group) were established: Non-diabetic control rats (NDC) treated by daily application of white petrolatum jelly (“vehicle”) for 7 days, diabetic rats (D group) treated daily with vehicle alone; diabetics treated by daily topical application of either a 1% (D+1%) or a 3% (D+3%) suspension of Compound 4 in the vehicle; and diabetics treated systemically by daily oral intubation of a 1 ml suspension of Compound 4 (in carboxymethylcellulose) at a dose of 30 mg/kg over the 7-day treatment protocol (D+30 mg/kg). At the end of this time period, the circular wounds were clinically assessed by measuring diameter of the wound in millimeters, blood samples were collected, the rats were sacrificed, and skin samples collected for histological/histochemical, and biochemical assessment as described below. • 1) On day 7 after inducing wound healing, the animals were anesthetized and blood samples collected for blood glucose (one Touch Ultra Glucometer; Johnson & Johnson, New Brunswick, N.J.) and Hemoglobin A1c (A1c Now+; Bayer Health Care, Sunnyvale, Calif.) measurements. • 2) Photographs were taken for clinical observations to assess wound closure. The % reduction of the wound surface was calculated by measuring the diameter (in millimeters) of each wound before and after the treatment protocol. • 3) Wound tissues on day 7 were excised from 3 sites per rat and pooled for biochemical analysis. […] The supernates were then dialyzed against the Tris-HCl, NaCl, CaCl2 buffer, and the proteinases partially purified by ammonium sulfate precipitation and examined for levels of MMP-2 (72 kD gelatinse) and MMP-9 (92 kD gelatinase) by gelatin zymography using denatured type I collagen (gelatin) as the substrate (6). • 4) The remaining wounds were assessed histologically & histochemically by Dr. Steve McClain (McClain Labs, Smithtown, N.Y.) as follows: Biopsies of each wound site were taken and included both the wound tissue and surrounding non-wounded tissue. […]

MMP-9 [4] = experiment: MMP-9 in conditioned media of peritoneal macrophages, gelatin zymography; format: in vivo, rat; conditions: diabetic rats, oral 30 mg/kg daily, 21 days; no LPS
Experimental: Adult male Sprague-Dawley rats (body weight 300-350 g) were injected through the tail vein with either 0.9% saline (non-diabetic control) or with the same solution containing streptozotocin (70 mg/kg body weight) to induce diabetes. Non-diabetic rats served as normal controls. The diabetic rats were distributed into 2 experimental groups (3 rats per group). Urine glucose levels were measured weekly with Tes-Tape (Eli Lilly Inc.). One group of rats was treated by oral gavage of Compound 4 (30 mg/kg body weight) daily for 21 days; the Compound 4 was suspended in 2% carboxymethyl cellulose and polytron/homogenized. The normal & diabetic vehicle-treated (control) groups were oral gavaged with vehicle alone daily.
Rat peritoneal macrophages were harvested with 10 ml RPMI 4 days after intraperitoneal injection of 10 ml of thioglycolate (3% wt/vol). Macrophages were then purified by density gradient centrifugation (lymphoprep) and cell numbers were counted in a hemocytometer. The cells were then tested in a cell migration assay (Cell BioLabs, Inc, CytoSelect 96-well with 5 um fluorometric format) using conditioned medium containing inflammatory mediators including MCP-1 from LPS-macrophages as a chemoattractant. The macrophages from different groups of rats were also plated onto 24 well-plates with and without p.g.LPS challenge for 24 hours in 37° C., 5% CO2. […]

O=C(/C=C/c1ccc(O)cc1)C(C(=O)/C=C/c1ccc(O)cc1)C(=O)Nc1ccccc1 [Compound 4, 1,7-Bis(4-hydroxyphenyl)-4-N-phenylaminocarbonylhepta-1E, 6E-dien-3,5-dione]
IC50 (MMP-1): 69.8 ± 2 µM
IC50 (MMP-8): 4.5 ± 0.5 µM
IC50 (MMP-2): 4.8 ± 0.5 µM
IC50 (MMP-9 [1]): 8 ± 0.6 µM
IC50 (MMP-14): 15.3 ± 3.1 µM
anti-MMP activity (in words) [2]: highly active
toxic effects ([3]; 30 mg/kg body weight, diabetic rats): virtually no toxic effects
tolerability ([3]; topical (e.g. 1%) or systemic administration): well tolerated; also recorded: well tolerated and not toxic
MMP-9 levels in peritoneal macrophages (MMP-9 [4]): decreased
